Measurements reported in patent US20190083462A1, “PREVENTION OF NSAID ENTEROPATHY WITH MICROBIOTA-DERIVED TRYPTOPHAN-METABOLITE” (THE TEXAS A&M UNIVERSITY SYSTEM, priority 2016, published 2019).

Legend:
small intestinal mucosa = assay: RNA sequencing (RNA-Seq) of the distal small intestinal mucosa; format: in vivo, mice; conditions: indole co-administered with NSAID; degree of up-regulation vs control mice
Text: (§1) Eight- to 10-week-old specific-pathogen-free C57BL/6J mice were purchased and allowed to acclimate for 2 weeks. Mice were fed standardized laboratory rodent diet and sterile water ad libitum. Mice were randomly divided into the following 4 groups (n=5 mice/group): 1) NSAID (indomethacin); 2) indole; 3) NSAID+indole; and, 4) untreated controls. Mice were then rehoused on the basis of treatment group assignment, with 5 animals/group-cage. To induce NSAID enteropathy, mice in group 1 were gavaged once daily with indomethacin (5 mg/kg; for 7 days; Sigma Aldrich, St. Louis, Mo.) dissolved in dimethylysulfoxide (DMSO) (Sigma Aldrich, St. Louis, Mo.) and further diluted in phosphate buffered saline (PBS). Mice in group 2 received indole by gavage (20 mg/kg; once daily for 7 days; Sigma Aldrich, St. Louis, Mo.) dissolved in sterile water warmed to 55° C. Mice in group 3 received indole co-administered with indomethacin by gavage at the dosages described above. All mice were gavaged with equal volumes (200 μL) and equal concentrations of DMSO (0.001%).
Feces were collected daily by placing individual animals in sterile plastic cups that were RNase- and DNase-free until they passed feces. The mice were immediately returned to their home cages and the feces immediately flash frozen at −80° C. […]
RNA was extracted from the mucosal scrapings using an RNeasy mini kit (QIAGEN, Redwood City, Calif.) following the manufacturer's instructions and including on-column DNase treatment. RNA quantity was determined using a Nanodrop spectrophotometer (Fisher Thermoscientific) and the quality was assessed using the Nano6000 chip on a Bioanalyzer 2100(Agilent Technologies). […] Differentially expressed genes were determined using EdgeR based on the matrix of gene counts (Robinson M D, McCarthy D J, Smyth G K. edgeR: a Bioconductor package for differential expression analysis of digital gene expression data. Bioinformatics (Oxford, England) 2010; 26:139-40). Gene lists were analyzed through use of QIAGEN's Ingenuity® Pathway Analysis (IPA, QIAGEN, Redwood City, Calif. http://www.qiagen.com/ingenuity). […]

C57BL/6J mice = assay: Histology and small intestinal morphometric measurements; format: in vivo; conditions: Swiss-rolled H & E stained small intestinal sections, n=5/group
Experimental: Eight- to 10-week-old specific-pathogen-free C57BL/6J mice were purchased and allowed to acclimate for 2 weeks. Mice were fed standardized laboratory rodent diet and sterile water ad libitum. […] Mice were then rehoused on the basis of treatment group assignment, with 5 animals/group-cage. To induce NSAID enteropathy, mice in group 1 were gavaged once daily with indomethacin (5 mg/kg; for 7 days; Sigma Aldrich, St. Louis, Mo.) dissolved in dimethylysulfoxide (DMSO) (Sigma Aldrich, St. Louis, Mo.) and further diluted in phosphate buffered saline (PBS). […] All mice were gavaged with equal volumes (200 μL) and equal concentrations of DMSO (0.001%).
The slides were scored as previously described for intestinal inflammation (Jia Q, Lupton J R, Smith R, Weeks B R, Callaway E, Davidson L A, Kim W, Fan Y Y, Yang P, Newman R A, et al. Reduced colitis-associated colon cancer in Fat-1 (n-3 fatty acid desaturase) transgenic mice. Cancer Research 2008; 68:3985-91). Briefly, mucosal injury was determined by the following parameters scored from 0 (no evidence) to 3 (marked): mucosal ulceration, mucosal erosion, and presence of squamified epithelium. Inflammatory changes were scored similarly based on the following parameters: lymphocytic infiltration, plasma cell infiltration, and neutrophilic infiltration. Finally, an overall evidence of injury score was used to document total injury graded from 0 (none) to 4 (marked). Morphological parameters were obtained from digitally scanned slides using SPOT vr 5.0 software. Three sets of measurements from 3 separate sections were recorded for each animal by an observer blinded to treatment group. Measurements consisted of villus height, crypt depth, and submucosal mural thickness.

fecal microbiota = assay: Fecal microbiota 16S rRNA sequencing (ANOSIM, SIMPER); format: in vivo, mice; conditions: for mean % abundance: day 7 feces
[1] = system: fecal tryptophan metabolites; assay: Fecal tryptophan metabolites by LC-MS; format: in vivo, mice
Text: as §1
Feces were collected daily by placing individual animals in sterile plastic cups that were RNase- and DNase-free until they passed feces. The mice were immediately returned to their home cages and the feces immediately flash frozen at −80° C. All animals were euthanized via CO2 asphyxiation on day 8 (i.e., after 7 days of treatment). The small intestine was harvested, opened longitudinally, rinsed with ice-cold PBS, and the distal ⅓ of the intestinal mucosa was scraped for tissue gene expression analysis. The remaining small intestine was fixed in 4% paraformaldehyde, Swiss-rolled, paraffin-embedded, and stained with hematoxylin and eosin. The spleen and mesenteric lymph nodes (MLN) were harvested, and immediately placed in ice cold RPMI-1640-c+10% fetal calf serum (FCS: Life Technologies, Carlsbad, Calif.), homogenized, and prepared as a single cell suspension for flow cytometric analysis as previously described (Wang N, Strugnell R, Wijburg O, Brodnicki T. Measuring bacterial load and immune responses in mice infected with Listeria monocytogenes. Journal of Visualized Experiments: JoVE 2011).
Metabolites from the fecal contents were extracted using a solvent-based method as previously described (Sridharan G V, Choi K, Klemashevich C, Wu C, Prabakaran D, Pan L B, Steinmeyer S, Mueller C, Yousofshahi M, Alaniz R C, et al. Prediction and quantification of bioactive microbiota metabolites in the mouse gut. Nature Communications 2014; 5:5492). Briefly, fecal pellets were homogenized using a homogenizer (Omni International) with equal volume of cold methanol and half volume of chloroform. The samples were then centrifuged at 10,000 g at 4° C. (Thermo Fisher Scientific) for 10 min. Supernatant was passed through a 70-μm sterile nylon cell strainer (Falcon) and 0.6 ml of ice cold water was added. The samples were vortex and centrifuged again at 10,000 g for 5 minutes. The upper phase and lower phase were collected and 400 μl of upper phase was dried to a pellet using a vacufuge (Eppendorf, Hauppauge, N.Y.), and then reconstituted in 50 μl of methanol/water (1:1, v/v). The samples were stored at −80° C. until analysis. Tryptophan metabolites in the samples were detected and quantified on a triple quadrupole linear ion trap mass spectrometer (3200 QTRAP, AB SCIEX, Foster City, Calif.) coupled to a binary pump HPLC (Prominence LC-20, Shimazu, Concord, Ontario, Canada).

[2] = system: intestinal epithelial cells; conditions: cited from earlier work
[3] = unweighted Unifrac distance metric, day 7

Compound: c1ccc2[nH]ccc2c1 [Indole, indole]
- transcription of pro-inflammatory cytokines (IL-1α, IL-1β, TNF, IL-6) and chemokines (CXCL1, CXCL3, CXCL2, CXCL5, CCL2, CCL7) (small intestinal mucosa): not significantly different than control mice
- microscopic pathology scores (C57BL/6J mice): not different
- abundance of members of the phyla Firmicutes and Bacteroidetes (fecal microbiota; fecal 16S rRNA sequences, Day 0 vs Day 7): no significant difference
- mean % abundance (fecal microbiota; phylum Unassigned, Other): 1.90E−03%
- mean % abundance (fecal microbiota; phylum k_Bacteria, Other): 3.81E−03%
- mean % abundance (fecal microbiota; phylum k_Bacteria, p_Acidobacteria): 0%
- mean % abundance (fecal microbiota; phylum k_Bacteria, p_Actinobacteria): 0.0381%
- mean % abundance (fecal microbiota; phylum k_Bacteria, p_Bacteroidetes): 24.6%
- mean % abundance (fecal microbiota; phylum k_Bacteria, p_Cyanobacteria): 9.51E−03%
- mean % abundance (fecal microbiota; phylum k_Bacteria, p_Firmicutes): 74.7%
- mean % abundance (fecal microbiota; phylum k_Bacteria, p_Proteobacteria): 0.0285%
- mean % abundance (fecal microbiota; phylum k_Bacteria, p_Tenericutes): 0.656%
- mean % abundance (fecal microbiota; phylum k_Bacteria, p_Verrucomicrobia): 1.90E−03%
- Pairwise ANOSIM R-value vs Control (fecal microbiota; [3]): 0.2
- Pairwise ANOSIM R-value vs NSAID (fecal microbiota; [3]): 0.2615
- Pairwise ANOSIM R-value vs NSAID + Indole (fecal microbiota; [3]): 0.1938
- Magnitude of change in fecal concentration between Days 0 and 7 ([1]; Indole, group effect ↑): 5.3
- fecal indole concentrations relative to controls ([1]; feces): significantly more indole
- NF-κB signaling [2]: inhibit
- anti-inflammatory effects and expression of genes associated with tight cell junctions ([2]; in vitro, earlier work of the inventors): has anti-inflammatory effects on intestinal epithelial cells and upregulates expression of genes associated with tight cell junctions
